Measured values published in patent publication US20080227866A1, “Hydroxyphenylalkadiones and Their Use for Masking Bitter Taste and/or for Intensifying Sweet Taste” (SYMRISE GMBH & CO. KG, priority 2005, published 2008).

Experiments:
[1] = described in DE 2 161,528; cited from earlier work
[2] = Bitterness reduction in a bitter principle solution, rated by a group of experts (caffeine); format: in vivo; conditions: 100 ppm substance in aqueous 500 ppm caffeine; for % reduction in the bitter impression: calculated from the average panel values; for Bitter impression (1-10) with: panel mean ± 95% confidence interval
Protocol: In order to quantify the reduction in the bitter impression, the bitterness of an aqueous bitter principle solution and of a sample which contained the same amount of bitter principle and a varying amount of the compound given by way of example was determined by a group of experts ([…]). The evaluation was made as a calculation of the reduction (in %) of the bitter impression from the average values of the estimations of the bitter principle solution and of the solutions containing bitter principle and compound given by way of example. 2,4-Dihydrobenzoic acid (2,4-DHB) was used as a comparison from U.S. Pat. No. 5,643,941. HED means homoeriodictyol sodium salt according to EP 1 258 200 B1.
(§1) Table: Bitterness of a bitter principle solution and of a solution containing bitter principle and a compound given by way of example (2,4-DHB=2,4-dihydroxybenzoic acid, HED=homoeriodictyol sodium salt according to EP 1 258 200 B1). “Testers positive” means the number of testers who were able to detect masking; the 95% confidence intervals are stated as errors; p<x means the significance according to the Student t test method (cf. statistics textbooks), n.s. means not significant.

[3] = Intensification of the sweet impression of a sucrose solution, rated by a group of experts; format: in vivo; conditions: 100 ppm test compound in 5 wt. % sucrose; for % intensification of the sweet impression: calculated from the average panel values; for Sweet impression (1-10) of a 5% strength sucrose solution with Test substance: panel mean ± standard deviation; for number of testers who found the test solution sweeter: second figure in brackets (total/positive)
Protocol: In order to quantify the intensification of the sweet impression, the sweetness of a solution containing 5 wt. % of sucrose and of a sample which contained 5 wt. % of sucrose and 100 ppm of the test compound was determined by a group of experts (classification 0 [not sweet] to 10 [extremely sweet]). The evaluation was made as a calculation of the intensification (in %) of the sweet impression from the average values of the estimations of the sucrose solution and of the solution containing sucrose and compound 2.
Table: Sweetness (a) of a sucrose solution and (b) of a solution containing sucrose and test substance; the standard deviations are stated as errors. In the last column, the total number of testers is stated against the number of testers who found the test solution sweeter.

[4] = Bitterness reduction in a bitter principle solution, rated by a group of experts (quinine hydrochloride); format: in vivo; conditions: 100 ppm substance in aqueous 5 ppm quinine hydrochloride
Protocol: In order to quantify the reduction in the bitter impression, the bitterness of an aqueous bitter principle solution and of a sample which contained the same amount of bitter principle and a varying amount of the compound given by way of example was determined by a group of experts (classification 0 [not bitter] to 10 [extremely bitter]). The evaluation was made as a calculation of the reduction (in %) of the bitter impression from the average values of the estimations of the bitter principle solution and of the solutions containing bitter principle and compound given by way of example. 2,4-Dihydrobenzoic acid (2,4-DHB) was used as a comparison from U.S. Pat. No. 5,643,941. HED means homoeriodictyol sodium salt according to EP 1 258 200 B1.
as §1

## COc1cc(CCC(=O)C2C(=O)CCC2=O)ccc1O [compound 9, 2-(3-[4-hydroxy-3-methoxyphenyl]propionyl)-cyclopentane-1,3-dione]
[1]
  antihypertensive action: weak antihypertensive agent

## O=C(O)c1ccc(O)cc1O [2,4-DHB, 2,4-dihydroxybenzoic acid, reference compound]
[2]
  Testers positive (number of testers who were able to detect masking): 9
  % reduction in the bitter impression: 3%, n.s.
  Bitter impression (1-10) with: 5.0 ± 1.0

## COc1ccc(/C=C/C(=O)CC(C)=O)cc1O [compound 10, (5E)-6-(3-Hydroxy-4-methoxyphenyl)hex-5-ene-2,4-dione]
[2]
  Testers positive (number of testers who were able to detect masking): 12
  % reduction in the bitter impression: 23%
  Bitter impression (1-10) with: 4.6 ± 0.9

## COc1ccc(CCC(=O)CC(C)=O)cc1O [compound 11, 6-(3-hydroxy-4-methoxyphenyl)hexane-2,4-dione]
[3]
  % intensification of the sweet impression: +28%
  Sweet impression (1-10) of a 5% strength sucrose solution with Test substance: 6.6 ± 1.2
  number of testers who found the test solution sweeter: 13
[2]
  Testers positive (number of testers who were able to detect masking): 11
  % reduction in the bitter impression: 17%, n.s.
  Bitter impression (1-10) with: 4.2 ± 0.8

## COc1cc(CCC(=O)CC(C)=O)ccc1O [compound 4, 6-(4-hydroxy-3-methoxyphenyl)hexane-2,4-dione]
[4]
  Testers positive (number of testers who were able to detect masking): 10
[4]; calculated from the average panel values
  % reduction in the bitter impression: 21%,
[4]; panel mean ± 95% confidence interval
  Bitter impression (1-10) with: 1.3 ± 0.8
[3]
  % intensification of the sweet impression: +13%
  Sweet impression (1-10) of a 5% strength sucrose solution with Test substance: 5.3 ± 1.6
  number of testers who found the test solution sweeter: 9
[2]
  Testers positive (number of testers who were able to detect masking): 15
  % reduction in the bitter impression: 34%,
  Bitter impression (1-10) with: 3.9 ± 0.8

## COc1cc(/C=C/C(=O)CC(C)=O)ccc1O [compound 1, (5E)-6-(4-hydroxy-3-methoxyphenyl)hex-5-ene-2,4-dione]
[2]
  Testers positive (number of testers who were able to detect masking): 9
  % reduction in the bitter impression: 21%,
  Bitter impression (1-10) with: 5.1 ± 1.0
